Tests used:
[1] = tested on: barnyardgrass; experiment: Test A preemergence; assay type: in vivo, Echinochloa crus-galli; conditions: Echinochloa crus-galli, pre-emergence, 240 h, read-out: Barnyardgrass plant response rating
Procedure, shortened: (§1)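 Pre- and postemergence greenhouse screen. Soil: loam + sand. Spray carrier: solvent mixture, non-phytotoxic, with surfactant. Post timing at 1–2 leaves, height 2–10 cm. Readout: visual injury on a 0–100 scale roughly 10 days after application, untreated plants as reference.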

[2] = tested on: giant foxtail; experiment: Test A preemergence; assay type: in vivo, Setaria faberii; conditions: Setaria faberi, pre-emergence, 240 h, read-out: Foxtail, Giant plant response rating
Procedure, shortened: as §1

[3] = tested on: velvetleaf; experiment: Test A preemergence; assay type: in vivo, Abutilon theophrasti; conditions: Abutilon theophrasti, pre-emergence, 240 h, read-out: Velvetleaf plant response rating
Procedure, shortened: as §1

[4] = tested on: blackgrass; experiment: Test C preemergence; assay type: in vivo, Alopecurus myosuroides; conditions: Alopecurus myosuroides, pre-emergence
Procedure, shortened: (§2)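 Seeds were sown in loam–sand blend and sprayed preemergence, while plants at 1- to 4-leaf stage (2–18 cm) in peat-based medium received postemergence sprays; test chemicals were formulated in a non-phytotoxic solvent with surfactant. After 13–15 days in a greenhouse, injury was rated visually against controls, 0 (no effect) to 100 (complete control).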

[5] = tested on: corn; experiment: Test C preemergence; assay type: in vivo, Zea mays; conditions: Zea mays, pre-emergence
Text: (§3) Seeds of plant species selected from blackgrass (Alopecurus myosuroides), Italian ryegrass (Lolium multiflorum), wheat, winter (winter wheat, Triticum aestivum), galium (catchweed bedstraw, Galium aparine), corn (Zea mays), large (Lg) crabgrass (Digitaria sanguinalis), giant foxtail (Setaria faberii), johnsongrass (Sorghum halepense), lambsquarters (Chenopodium album), morningglory (Ipomoea coccinea), yellow nutsedge (Cyperus esculentus), pigweed (Amaranthus retroflexus), ragweed (common ragweed, Ambrosia elatior), soybean (Glycine max), barnyardgrass (Echinochloa crus-galli), oilseed rape (Brassica napus), waterhemp (common waterhemp, Amaranthus rudis), kochia (Kochia scoparia), wild oat (Avena fatua), surinam grass (Brachiaria decumbens), foxtail, green (green foxtail, Setaria viridis), goosegrass (Eleusine indica), bromegrass, downy (downy bromegrass, Bromus tectorum), nightshade (eastern black nightshade, Solanum ptycanthum), cocklebur (common cocklebur, Xanthium strumarium), cupgrass, woolly (woolly cupgrass, Eriochloa villosa), bermudagrass (Cynodon dactylon), sunflower, (common oilseed sunflower, Helianthus annuus), Russian thistle (Salsola kali), and velvetleaf (Abutilon theophrasti) were planted into a blend of loam soil and sand and treated preemergence with test chemicals formulated in a non-phytotoxic solvent mixture which included a surfactant.
(§4) At the same time, plants selected from these crop and weed species and also barley, winter (winter barley, Hordeum vulgare), windgrass (Apera spica-venti), chickweed (common chickweed, Stellaria media), deadnettle (henbit deadnettle, Lamium amplexicaule), and canarygrass (littleseed canarygrass, Phalaris minor) were planted in pots containing Redi-Earth® planting medium (Scotts Company, 14111 Scottslawn Road, Marysville, Ohio 43041) comprising spaghnum peat moss, vermiculite, wetting agent and starter nutrients and treated with postemergence applications of test chemicals formulated in the same manner. Plants ranged in height from 2 to 18 cm (1- to 4-leaf stage) for postemergence treatments. Treated plants and controls were maintained in a greenhouse for 13 to 15 days, after which time all species were compared to controls and visually evaluated. Plant response ratings, summarized in Table C, are based on a scale of 0 to 100 where 0 is no effect and 100 is complete control. A dash (-) response means no test result.

[6] = tested on: morningglory; experiment: Test C preemergence; assay type: in vivo, Ipomoea coccinea; conditions: Ipomoea, pre-emergence
Procedure, shortened: as §2

[7] = tested on: ragweed; experiment: Test C preemergence; assay type: in vivo, Ambrosia elatior; conditions: Ambrosia artemisiifolia, pre-emergence
Text: as §3, §4

[8] = tested on: soybean; experiment: Test C preemergence; assay type: in vivo, Glycine max; conditions: Glycine max, pre-emergence
Procedure, shortened: as §2

[9] = tested on: blackgrass; experiment: Test C postemergence; assay type: in vivo, Alopecurus myosuroides; conditions: Alopecurus myosuroides, post-emergence
Procedure, shortened: as §2

[10] = tested on: Italian ryegrass; experiment: Test C postemergence; assay type: in vivo, Lolium multiflorum; conditions: Lolium multiflorum, post-emergence
Text: as §3, §4

[11] = tested on: corn; experiment: Test C postemergence; assay type: in vivo, Zea mays; conditions: Zea mays, post-emergence
Text: as §3, §4

[12] = tested on: lambsquarters; experiment: Test C postemergence; assay type: in vivo, Chenopodium album; conditions: Chenopodium album, post-emergence
Text: as §3, §4

[13] = tested on: pigweed; experiment: Test C postemergence; assay type: in vivo, Amaranthus retroflexus; conditions: Amaranthus retroflexus, post-emergence
Procedure, shortened: as §2

[14] = 125 g ai/ha, 0 to 100 scale where 0 is no effect and 100 is complete control
[15] = 500 g ai/ha, 0 to 100 scale, 0 no effect, 100 complete control, approx. 10 days

Clc1cnc(Oc2ccccc2-n2cc(Br)cn2)nc1 [Compound 7, 2-[2-(4-bromo-1H-pyrazol-1-yl)phenoxy]-5-chloropyrimidine]
100%: pest or weed control at 500 g/ha [1, 15] | pest or weed control at 125 g/ha [2, 14] | pest or weed control at 500 g/ha [2, 15] | pest or weed control at 125 g/ha [3, 14] | pest or weed control at 500 g/ha [3, 15] | pest or weed control at 125 g/ha ([13]; 125 g ai/ha, postemergence, read-out: Plant response rating (0 to 100), Pigweed) | pest or weed control at 250 g/ha ([13]; 250 g ai/ha, postemergence, read-out: Plant response rating (0 to 100), Pigweed) | pest or weed control at 31 g/ha ([13]; Postemergence, 31 g ai/ha, scale 0 to 100 (0 no effect, 100 complete control), 13 to 15 days, read-out: Plant response rating, Pigweed) | pest or weed control at 62 g/ha ([13]; Postemergence, 62 g ai/ha, scale 0 to 100 (0 no effect, 100 complete control), read-out: Plant response rating, Pigweed)
60%: plant injury at 125 g/ha ([8]; 125 g ai/ha, preemergence, scale 0 (no effect) to 100 (complete control), read-out: Soybean plant response rating) | plant injury at 125 g/ha ([11]; 125 g ai/ha, postemergence, read-out: Plant response rating (0 to 100), Corn) | pest or weed control at 31 g/ha ([12]; Postemergence, 31 g ai/ha, scale 0 to 100 (0 no effect, 100 complete control), 13 to 15 days, read-out: Plant response rating, Lambsquarters)
5%: pest or weed control at 31 g/ha ([4]; Preemergence, 31 g ai/ha, scale 0 to 100, 0 no effect, 100 complete control, read-out: Plant response rating, Blackgrass) | plant injury at 62 g/ha ([5]; 62 g ai/ha, preemergence, scale 0 (no effect) to 100 (complete control), read-out: Corn plant response rating) | plant injury at 125 g/ha ([5]; 125 g ai/ha, preemergence, scale 0 (no effect) to 100 (complete control), read-out: Corn plant response rating) | plant injury at 250 g/ha ([5]; 250 g ai/ha, preemergence, scale 0 (no effect) to 100 (complete control), read-out: Corn plant response rating) | pest or weed control at 125 g/ha ([7]; 125 g ai/ha, preemergence, scale 0 (no effect) to 100 (complete control), read-out: Ragweed plant response rating) | pest or weed control at 31 g/ha ([9]; Postemergence, 31 g ai/ha, scale 0 to 100 (0 no effect, 100 complete control), 13 to 15 days, read-out: Plant response rating, Blackgrass) | pest or weed control at 31 g/ha ([10]; Postemergence, 31 g ai/ha, scale 0 to 100 (0 no effect, 100 complete control), 13 to 15 days, read-out: Plant response rating, Ryegrass, Italian)
80%: pest or weed control at 125 g/ha [1, 14]
40%: pest or weed control at 250 g/ha ([6]; 250 g ai/ha, preemergence, scale 0 (no effect) to 100 (complete control), read-out: Morningglory plant response rating) | pest or weed control at 250 g/ha ([7]; 250 g ai/ha, preemergence, scale 0 (no effect) to 100 (complete control), read-out: Ragweed plant response rating) | plant injury at 62 g/ha ([8]; 62 g ai/ha, preemergence, scale 0 (no effect) to 100 (complete control), read-out: Soybean plant response rating) | pest or weed control at 250 g/ha ([10]; 250 g ai/ha, postemergence, read-out: Plant response rating (0 to 100), Ryegrass, Italian)
98%: plant injury at 250 g/ha ([8]; 250 g ai/ha, preemergence, scale 0 (no effect) to 100 (complete control), read-out: Soybean plant response rating) | pest or weed control at 125 g/ha ([12]; 125 g ai/ha, postemergence, read-out: Plant response rating (0 to 100), Lambsquarters) | pest or weed control at 250 g/ha ([12]; 250 g ai/ha, postemergence, read-out: Plant response rating (0 to 100), Lambsquarters) | pest or weed control at 62 g/ha ([12]; Postemergence, 62 g ai/ha, scale 0 to 100 (0 no effect, 100 complete control), read-out: Plant response rating, Lambsquarters)
15%: plant injury at 31 g/ha ([8]; Preemergence, 31 g ai/ha, scale 0 to 100, 0 no effect, 100 complete control, read-out: Plant response rating, Soybean)
25%: Corn plant response rating (crop injury, 0 = no effect, 100 = complete kill) at 62 g/ha ([11]; Postemergence, 62 g ai/ha, scale 0 to 100 (0 no effect, 100 complete control))
45%: pest or weed control at 125 g/ha ([9]; 125 g ai/ha, postemergence, read-out: Plant response rating (0 to 100), Blackgrass)
50%: pest or weed control at 125 g/ha ([4]; 125 g ai/ha, preemergence, scale 0 (no effect) to 100 (complete control), read-out: Blackgrass plant response rating) | pest or weed control at 250 g/ha ([9]; 250 g ai/ha, postemergence, read-out: Plant response rating (0 to 100), Blackgrass)
85%: pest or weed control at 250 g/ha ([4]; 250 g ai/ha, preemergence, scale 0 (no effect) to 100 (complete control), read-out: Blackgrass plant response rating)
75%: plant injury at 250 g/ha ([11]; 250 g ai/ha, postemergence, read-out: Plant response rating (0 to 100), Corn)
0%: Corn plant response rating (crop injury, 0 = no effect, 100 = complete kill) at 31 g/ha ([5]; Preemergence, 31 g ai/ha, scale 0 to 100, 0 no effect, 100 complete control) | pest or weed control at 62 g/ha ([6]; 62 g ai/ha, preemergence, scale 0 (no effect) to 100 (complete control), read-out: Morningglory plant response rating) | pest or weed control at 31 g/ha ([6]; Preemergence, 31 g ai/ha, scale 0 to 100, 0 no effect, 100 complete control, read-out: Plant response rating, Morningglory) | pest or weed control at 62 g/ha ([7]; 62 g ai/ha, preemergence, scale 0 (no effect) to 100 (complete control), read-out: Ragweed plant response rating) | pest or weed control at 31 g/ha ([7]; Preemergence, 31 g ai/ha, scale 0 to 100, 0 no effect, 100 complete control, read-out: Plant response rating, Ragweed)
10%: pest or weed control at 62 g/ha ([4]; 62 g ai/ha, preemergence, scale 0 (no effect) to 100 (complete control), read-out: Blackgrass plant response rating) | pest or weed control at 125 g/ha ([6]; 125 g ai/ha, preemergence, scale 0 (no effect) to 100 (complete control), read-out: Morningglory plant response rating) | pest or weed control at 62 g/ha ([9]; Postemergence, 62 g ai/ha, scale 0 to 100 (0 no effect, 100 complete control), read-out: Plant response rating, Blackgrass) | pest or weed control at 125 g/ha ([10]; 125 g ai/ha, postemergence, read-out: Plant response rating (0 to 100), Ryegrass, Italian) | pest or weed control at 62 g/ha ([10]; Postemergence, 62 g ai/ha, scale 0 to 100 (0 no effect, 100 complete control), read-out: Plant response rating, Ryegrass, Italian)
